Data as given in publication PMC8230625 (International Journal of Molecular Sciences, 2021).
Several values for one entry are separate records, joined by “and”; a condition that tells them apart may be missing. Equal values may be shown once. Read-outs that look alike come from different tables or passages of the source.

What was measured:
[1] = molecular target: T1, hERα (Saccharomyces cerevisiae BLYES strain) (Homo sapiens, UniProt P03372); test: cell-based; assay type: cell-based; details: for CI Value (combination index) / Combined Estrogenic Effect / Combined Estrogenic Effect (grade symbol): + 6.28 × 10^−2 µM ZEN; for Combined estrogenic effect in Figure 5B: + 62.8 ×10^-3 μM ZEN; for Concentration at (and above) which statistically significant (p < 0.01) estrogenic effect was observed: single compound
T1 construct: expressed in transfected cells; host or cells: Saccharomyces cerevisiae BLYES strain (hERα gene integrated in the chromosome)
Description: The Saccharomyces cerevisiae BLYES strain was applied to examine the estrogenic activity of the compounds tested. This bioluminescent yeast bioreporter harbors the hERα gene on its chromosome, and it has two plasmids with genes responsible for bioluminescence. The pUTK404 plasmid contains luxC, -D, and -E genes from Photorhabdus luminescens and flavin oxidoreductase gene (frp) from Vibrio harveyi. The pUTK407 plasmid contains tandem estrogen responsive elements (EREs) that initiate the transcription of luxA and luxB genes after binding the dimer formed by estrogen receptor—ligand complexes.
S. cerevisiae BLYES strain was grown in 30 mL of yeast growth medium (YMM leu-, ura-) for 18–20 h at 30 °C.
Stock solutions of the compounds tested were prepared in methanol and stored at −20 °C. Estrogen assays were carried out on 96-well (PS, F-bottom) microplates (Greiner Bio-One Hungary Ltd., Mosonmagyaróvár, Hungary). In single compound tests, stock solutions of the compounds were serially diluted with methanol; whereas, in co-exposure experiments, a 20-µL mixture of the solutions was placed into the wells of the microplates. After the evaporation of methanol, yeast culture (200 µL; OD600 of 1.000 ± 0.050) were pipetted into each well. E2 was applied as a positive control, while wells containing only yeast cells and yeast cells with methanol served as negative and solvent controls, respectively. Bioluminescence (cps, counts per second) was measured after 5-h incubation (30 °C) with a VictorX Multilabel Plate Reader (Perkin Elmer Inc., Waltham, MA, USA).
(§1) Combined effects were evaluated based on combination indices (CI) determined using the CompuSyn software (ComboSyn Inc., Paramus, NJ, USA) by the median-effect equation of the mass-action law:(1) logfa/fu=m×log(D)−m×log(Dm), where fa and fu are the affected and unaffected fractions of the system, respectively; D represents the dose, Dm denotes the dose necessary for the production of median effect, while m is the sigmoidicity coefficient (m > 1 sigmoidal, m = 1 hyperbolic, m < 1 flat sigmoidal).
(§2) The combined effects of mycotoxins were determined by the CI values calculated based on the following equation [68]:(2) CI=(D)1/(Dx)1+(D)2/(Dx)2, where (Dx)1 and (Dx)2 are the individual doses necessary for the production of x% effect, while (D)1 and (D)2 are the doses of the two compounds that combined evoke the same effect as (Dx)1 alone or (Dx)2 alone, i.e., the targeted x% effect.
Zero percent was defined in each measurement as the mean of the methanol control values, and 100% was defined as the mean of all plateau values of single compounds’ concentration—response curves.

[2] = system: HeLa cells; test: in vitro; details: for Effect of the non-toxic (subtoxic) concentration of the compound on ATP levels of ZEN-exposed cells: co-exposure with toxic concentration of ZEN (20 μM), compared to ZEN-exposed cells, Figure 3A; for Concentration at (and above) which statistically significant (p < 0.01) decrease in cell viability was noticed: 24 h incubation, single compound; for IC50: Homo sapiens, read-out: Dm (IC50), viability of HeLa cells (ATP/well)
Procedure: (§3) The HeLa cervical cancer adherent cell line (ATCC: CCL-2) was applied for the evaluation of individual and combined effects of mycotoxins on cell viability. The cells were cultured in DMEM (high glucose, 4500 mg/L) with 10% FBS, penicillin (100 U/mL), and streptomycin (100 μg/mL) in sterile plastic cell culture flasks (75 cm^2; 5% CO2, 37 °C). The cells were trypsinized and plated onto 96-well sterile plastic plates. Stock solutions (each 5000 μM) of ZEN, ZELs, ZAN, and ZALs used in cell experiments were prepared in 96 v/v% ethanol (spectroscopic grade; VWR, Debrecen, Hungary). Stock solutions of AOH (5000 μM or 40 mM) were prepared in spectroscopic grade dimethyl sulfoxide (DMSO; Fluka, Morris Plains, NJ, USA). Mycotoxin stock solutions were stored at −20 °C.
(§4) HeLa cells were treated with ZEN, α/β-ZEL, ZAN, α/β-ZAL, and AOH (0–250 μM) for 24 h. […] The cell viability was evaluated based on the ATP levels/well employing a previously described method without modifications.
as §1, §2

[3] = in vitro; details: human
Procedure: as §3, §4, §1, §2

[4] = BLYES, higher concentration (µM): α-ZEL 1.25 × 10^−2, β-ZEL 2.43, ZAN 4.99 × 10^−2, α-ZAL 2.48 × 10^−2, β-ZAL 2.48 × 10^−1, GEN 1.48
[5] = BLYES, higher estrogenic concentration of the compound (as E22)
[6] = BLYES, lower concentration (µM): α-ZEL 6.24 × 10^−3, β-ZEL 1.22, ZAN 2.50 × 10^−2, α-ZAL 1.24 × 10^−2, β-ZAL 1.24 × 10^−1, GEN 7.4 × 10^−1
[7] = BLYES, lower estrogenic concentration of the compound (as E21)
[8] = BLYES, higher estrogenic concentration of the compound (as E20)
[9] = BLYES, lower estrogenic concentration of the compound (as E19)
[10] = HeLa, 24 h, 10 µM (lower toxic concentration) of the compound + 20 µM ZEN
[11] = HeLa, 24 h, 10 µM of the compound + 20 µM ZEN
[12] = HeLa, 24 h, 30 µM (higher toxic concentration) of the compound + 20 µM ZEN
[13] = HeLa, 24 h, 30 µM of the compound + 20 µM ZEN
[14] = HeLa, 24 h, 10 µM of the compound + 20 µM ZEN, CompuSyn
[15] = HeLa, 24 h, 30 µM of the compound + 20 µM ZEN, CompuSyn

T1 sequence (P03372 whole entry): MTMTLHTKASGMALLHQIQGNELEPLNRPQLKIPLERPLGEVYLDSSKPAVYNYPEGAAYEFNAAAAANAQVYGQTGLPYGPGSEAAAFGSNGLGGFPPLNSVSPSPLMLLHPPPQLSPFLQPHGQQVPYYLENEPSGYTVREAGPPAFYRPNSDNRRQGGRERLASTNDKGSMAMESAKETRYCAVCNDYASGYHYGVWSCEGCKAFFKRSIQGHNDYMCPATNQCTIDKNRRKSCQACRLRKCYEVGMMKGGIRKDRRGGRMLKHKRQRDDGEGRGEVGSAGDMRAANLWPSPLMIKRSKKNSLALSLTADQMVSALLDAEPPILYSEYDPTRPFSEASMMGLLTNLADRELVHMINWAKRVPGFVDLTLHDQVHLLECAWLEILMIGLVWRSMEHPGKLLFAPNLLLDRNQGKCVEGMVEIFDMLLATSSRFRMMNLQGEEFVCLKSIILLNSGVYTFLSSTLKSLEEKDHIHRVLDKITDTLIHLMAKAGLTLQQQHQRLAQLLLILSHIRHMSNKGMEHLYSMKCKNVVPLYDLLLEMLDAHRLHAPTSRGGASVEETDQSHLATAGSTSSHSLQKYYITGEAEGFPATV

SMILES: C[C@H]1CCC[C@H](O)CCCCCc2cc(O)cc(O)c2C(=O)O1 [α-ZAL, α-zearalanol]
- EC50 [1]: 0.019 µM
- CI Value (combination index) [1, 4]: 1.16
- Combined Estrogenic Effect [1, 5]: Additive effect (0.8 < CI < 1.2: additive effect)
- Combined Estrogenic Effect (grade symbol) [1, 5]: ± (0.80 < CI < 1.20: ±)
- CI Value (combination index) [1, 6]: 0.97
- Combined Estrogenic Effect [1, 7]: Additive effect (0.8 < CI < 1.2: additive effect)
- Combined Estrogenic Effect (grade symbol) [1, 7]: ± (0.80 < CI < 1.20: ±)
- Combined estrogenic effect in Figure 5B [1, 8]: additive combined effects
- Combined estrogenic effect in Figure 5B [1, 9]: additive combined effects
- Concentration at (and above) which statistically significant (p < 0.01) estrogenic effect was observed ([1]; BLYES): 0.024 µM
- CI Value (combination index) [2]: 0.78 and 0.52
- Combined cytotoxic effect in Figure 3B [2, 10]: Syn
- Combined Cytotoxic Effect [2, 11]: Synergism (CI < 0.8: synergism)
- Combined Cytotoxic Effect (grade symbol) [2, 11]: ++ (CI < 0.60: ++)
- Combined cytotoxic effect in Figure 3B [2, 12]: Syn
- Combined Cytotoxic Effect [2, 13]: Synergism (CI < 0.8: synergism)
- Combined Cytotoxic Effect (grade symbol) [2, 13]: + (0.60 < CI < 0.80: +)
- Effect of the non-toxic (subtoxic) concentration of the compound on ATP levels of ZEN-exposed cells ([2]; HeLa, 24 h): statistically significant (p < 0.01) decreases in ATP levels
- Concentration at (and above) which statistically significant (p < 0.01) decrease in cell viability was noticed ([2]; HeLa): 20 µM
- IC50 ([2]; HeLa, 24 h): 63.8 µM
- cytotoxicity at 10 µM [3]: 1.9%
- cytotoxicity at 30 µM [3]: 19.3%

SMILES: C[C@H]1CCCC(=O)CCC/C=C/c2cc(O)cc(O)c2C(=O)O1 [ZEN, zearalenone]
- EC50 [1]: 0.46 µM
- Estrogenic effect (% increase), individual effect ([1]; BLYES, ZEN alone at 62.8 ×10^-3 μM (6.3 × 10^−2 µM)): approximately 20%
- Concentration at (and above) which statistically significant (p < 0.01) estrogenic effect was observed ([1]; BLYES): 0.031 µM
- Concentration at (and above) which statistically significant (p < 0.01) decrease in cell viability was noticed ([2]; HeLa): 10 µM
- IC50 ([2]; HeLa, 24 h): 56.4 µM
- cytotoxicity ([2]; read-out: Decrease in cellular ATP levels (% of control), individual effect, HeLa, 24 h, single compound at 20 μM, 20 µM): ~30%
- cytotoxicity at 24 h, 20 µM ([3]; Decrease in cellular ATP levels (% of control), individual effect, HeLa, 24 h, single compound at 20 μM): 30.1%

SMILES: C[C@H]1CCC[C@@H](O)CCC/C=C/c2cc(O)cc(O)c2C(=O)O1 [β-ZEL, β-zearalenol]
- EC50 [1]: 2.4 µM
- CI Value (combination index) [1, 4]: 0.95
- Combined Estrogenic Effect [1, 5]: Additive effect (0.8 < CI < 1.2: additive effect)
- Combined Estrogenic Effect (grade symbol) [1, 5]: ± (0.80 < CI < 1.20: ±)
- CI Value (combination index) [1, 6]: 0.77
- Combined Estrogenic Effect [1, 7]: Synergism (CI < 0.8: synergism)
- Combined Estrogenic Effect (grade symbol) [1, 7]: + (0.60 < CI < 0.80: +)
- Combined estrogenic effect in Figure 5B [1, 8]: additive effects
- Combined estrogenic effect in Figure 5B [1, 9]: synergism
- Concentration at (and above) which statistically significant (p < 0.01) estrogenic effect was observed ([1]; BLYES): 0.31 µM
- Combined cytotoxic effect in Figure 3B [2, 10]: Syn
- Combined Cytotoxic Effect [2, 11]: Synergism (CI < 0.8: synergism)
- Combined Cytotoxic Effect (grade symbol) [2, 11]: + (0.60 < CI < 0.80: +)
- CI Value (combination index) [2, 14]: 0.64
- Combined cytotoxic effect in Figure 3B [2, 12]: Add
- Combined Cytotoxic Effect [2, 13]: Additive effect (0.8 < CI < 1.2: additive effect)
- Combined Cytotoxic Effect (grade symbol) [2, 13]: ± (0.80 < CI < 1.20: ±)
- CI Value (combination index) [2, 15]: 1.07
- Effect of the non-toxic (subtoxic) concentration of the compound on ATP levels of ZEN-exposed cells ([2]; HeLa, 24 h): statistically significant (p < 0.01) decreases in ATP levels
- Concentration at (and above) which statistically significant (p < 0.01) decrease in cell viability was noticed ([2]; HeLa): 10 µM
- IC50 ([2]; HeLa, 24 h): 39.4 µM
- cytotoxicity at 10 µM [3]: 19.7%
- cytotoxicity at 30 µM [3]: 33.1%

SMILES: C[C@H]1CCCC(=O)CCCCCc2cc(O)cc(O)c2C(=O)O1 [ZAN, zearalanone]
- EC50 [1]: 0.048 µM
- CI Value (combination index) [1, 4]: 0.62
- Combined Estrogenic Effect [1, 5]: Synergism (CI < 0.8: synergism)
- Combined Estrogenic Effect (grade symbol) [1, 5]: + (0.60 < CI < 0.80: +)
- CI Value (combination index) [1, 6]: 0.58
- Combined Estrogenic Effect [1, 7]: Synergism (CI < 0.8: synergism)
- Combined Estrogenic Effect (grade symbol) [1, 7]: ++ (CI < 0.60: ++)
- Combined estrogenic effect in Figure 5B [1, 8]: synergism
- Combined estrogenic effect in Figure 5B [1, 9]: synergism
- Effect of subtoxic (non-estrogenic) concentration of the compound on the estrogenic effect of ZEN ([1]; BLYES, co-treatment with ZEN (approx. 20% estrogenicity), α-ZEL 1.56 × 10^−3 µM, ZAN 6.24 × 10^−3 µM, AOH up to 48.4 µM, Figure 5A): statistically significant (p < 0.05) increases
- Concentration at (and above) which statistically significant (p < 0.01) estrogenic effect was observed ([1]; BLYES): 0.012 µM
- Combined cytotoxic effect in Figure 3B [2, 10]: Syn and synergism
- Combined Cytotoxic Effect [2, 11]: Synergism (CI < 0.8: synergism)
- Combined Cytotoxic Effect (grade symbol) [2, 11]: ++ (CI < 0.60: ++)
- CI Value (combination index) [2, 14]: 0.55
- Combined cytotoxic effect in Figure 3B [2, 12]: Syn and synergism
- Combined Cytotoxic Effect [2, 13]: Synergism (CI < 0.8: synergism)
- Combined Cytotoxic Effect (grade symbol) [2, 13]: + (0.60 < CI < 0.80: +)
- CI Value (combination index) [2, 15]: 0.77
- Concentration at (and above) which statistically significant (p < 0.01) decrease in cell viability was noticed ([2]; HeLa): 10 µM
- IC50 ([2]; HeLa, 24 h): 61.5 µM
- cytotoxicity at 10 µM [3]: 13.2%
- cytotoxicity at 30 µM [3]: 34.8%

SMILES: C[C@H]1CCC[C@@H](O)CCCCCc2cc(O)cc(O)c2C(=O)O1 [β-ZAL, β-zearalanol]
- EC50 [1]: 0.18 µM
- CI Value (combination index) [1, 4]: 1.56
- Combined Estrogenic Effect [1, 5]: Antagonism (CI > 1.2: antagonism)
- Combined Estrogenic Effect (grade symbol) [1, 5]: -- (CI > 1.40: --)
- CI Value (combination index) [1, 6]: 1.19
- Combined Estrogenic Effect [1, 7]: Additive effect (0.8 < CI < 1.2: additive effect)
- Combined Estrogenic Effect (grade symbol) [1, 7]: ± (0.80 < CI < 1.20: ±)
- Combined estrogenic effect in Figure 5B [1, 8]: antagonism
- Combined estrogenic effect in Figure 5B [1, 9]: additive effect
- Concentration at (and above) which statistically significant (p < 0.01) estrogenic effect was observed ([1]; BLYES): 0.03 µM
- CI Value (combination index) [2]: 0.51 and 0.72
- Combined cytotoxic effect in Figure 3B [2, 10]: Syn
- Combined Cytotoxic Effect [2, 11]: Synergism (CI < 0.8: synergism)
- Combined Cytotoxic Effect (grade symbol) [2, 11]: ++ (CI < 0.60: ++)
- Combined cytotoxic effect in Figure 3B [2, 12]: Syn
- Combined Cytotoxic Effect [2, 13]: Synergism (CI < 0.8: synergism)
- Combined Cytotoxic Effect (grade symbol) [2, 13]: + (0.60 < CI < 0.80: +)
- Effect of the non-toxic (subtoxic) concentration of the compound on ATP levels of ZEN-exposed cells ([2]; HeLa, 24 h): statistically significant (p < 0.01) decreases in ATP levels
- Concentration at (and above) which statistically significant (p < 0.01) decrease in cell viability was noticed ([2]; HeLa): 10 µM
- IC50 ([2]; HeLa, 24 h): 64.5 µM
- cytotoxicity at 10 µM [3]: 9.6%
- cytotoxicity at 30 µM [3]: 28%
